Assays:
human S1P1 = target: T1, human S1P1 (Homo sapiens, UniProt P21453); experiment: S1P1 Binding Assay (33P-S1P radioligand competition, CHO cell membranes); conditions: membranes from CHO cells expressing human S1P1; 0.03 nM 33P-S1P; 60 min room temperature
T1 construct: expressed in transfected cells; host or cells: CHO cells
Description: Membranes were prepared from CHO cells expressing human S1P1. Cells were dissociated in buffer containing 20 mM HEPES, pH 7.5, 50 mM NaCl, 2 mM EDTA and Protease Inhibitor cocktail (Roche), and disrupted on ice using the Polytron homogenizer. The homogenate was centrifuged at 20,000 rpm (48,000 g) and the supernatant was discarded. The membrane pellets were resuspended in buffer containing 50 mM HEPES, pH 7.5, 100 mM NaCl, 1 mM MgCl2, 2 mM EDTA and stored in aliquots at −80° C. after protein concentration determination.
Membranes ([…]) and 0.03 nM final concentration of ^33P—S1P ligand (1 mCi/ml, American Radiolabeled Chemicals) were added to the compound plates. Binding was performed for 60 min at room temperature, terminated by collecting the membranes onto GF/B filter plates, and radioactivity was measured by TOPCOUNT®. The competition data of the test compounds over a range of concentrations was plotted as percentage inhibition of radioligand specific binding. The IC50 is defined as the concentration of competing ligand needed to reduce specific binding by 50%.
Compounds of the present invention and Comparative Compound A were tested in the S1P1 binding assay described hereinabove and the results rounded to two digits, shown in Table A were obtained. In some instances, the value is an average of multiple experiments where N is the number of experiments conducted that provided satisfactory dose response curves. When more than one batch of an example was tested, the value presented is from the batch which allowed a comparison of GTPγS S1P1 and GTPγS S1P3 in Method A (Data shown in Table B). Data was not averaged across different batches of an example compound.

[1] = target: T2, S1P1 (membranes from S1P1/CHO cells) (Homo sapiens, UniProt P21453); experiment: Method A: Receptor [35S] GTPγS Binding Assay, S1P1; format: biochemical; conditions: Method A; S1P1/CHO membranes
T2 construct: expressed in transfected cells; host or cells: S1P1/CHO cells
Description: Method A: Receptor [35S] GTPγS Binding Assays
Compounds were loaded in a 384 Falcon v-bottom plate (0.5 μl/well in a 3-fold dilution). Membranes prepared from S1P1/CHO cells or EDG3-Gal5-bla HEK293T cells were added to the compound plate (40 μl/well, final protein 3 μg/well) with MULTIDROP®. [^35S]GTP (1250 Ci/mmol, Perkin Elmer) was diluted in assay buffer: 20 mM HEPES, pH 7.5, 10 mM MgCl2, 150 mM NaCl, 1 mM EGTA, 1 mM DTT, 10 μM GDP, 0.1% fatty acid free BSA, and 10 μg/ml Saponin to 0.4 nM. 40 μl of the [^35S] GTP solution was added to the compound plate with a final concentration of 0.2 nM. The reaction was kept at room temperature for 45 min. At the end of incubation, all the mixtures in the compound plate were transferred to a 384 well FB filter plates via GPCR robot system. The filter plate was washed with water 4 times by using the modified manifold Embla plate washer and dried at 60° C. for 45 min. 30 μA of MicroScint 20 scintillation fluid was added to each well for counting at Packard TOPCOUNT®. EC50 is defined as the agonist concentration that corresponds to 50% of the Ymax (maximal response) obtained for each individual compound tested.
(§1) Compounds of the present invention and Comparative Compound A were tested in the Receptor [35S] GTPγS Binding Assays (Method A) and Receptor [35S] In some instances, the value is an average of multiple experiments where N is the number of experiments conducted that provided satisfactory dose response curves. When more than one batch of an example was tested, the value presented is from a batch which allowed a comparison of GTPγS S1P1 and GTPγS S1P3 in which the most number of experiments were performed. Preferably, the same batch was examined in Method A and Method B. Data was not averaged across different batches of an example compound.

[2] = target: T3, S1P1 (membranes from S1P1 transfected CHO cells) (Homo sapiens, UniProt P21453); experiment: Method B: Receptor [35S] GTPγS SPA Binding Assay, S1P1; format: biochemical
T3 construct: expressed in transfected cells; host or cells: CHO cells
Description: (§2) Method B: Receptor [35S] GTPγS SPA Binding Assays
(§3) Membranes prepared from S1P1 or S1P3 transfected CHO cells ([…]) were incubated in 96-well white plates (CORNING® 3693) with test compounds diluted in DMSO, in 50 μl of reaction mixture containing 7.5 μl WGA-PVT beads (20 mg/ml), and 5 μM GDP, 20 mM HEPES pH 7.4, 100 mM NaCl, 1 mM EDTA, 5 mM MgCl2, 10 μg/ml saponin, 0.1% BSA, and 1 μM leupeptin. The assay was initiated with the addition of […] of 0.2 nM [^35S]-GTPγS (1250 Ci/mmol; NEN) in assay buffer. After 90 min incubation at room temperature, spin the plate at 1000 rpm for 5 min. The bound radionuclides were measured at TOPCOUNT®, expressed as % response relative to S1P (1 μM) activation. Data was analyzed using the four parameter logistic equation in Excel. The four parameters in the equation, Y=A+((B−A)/(1+((EC50/X)^D))), are described as following: A is the Y value (agonist activity) at the bottom plateau; B is the Y value at the top plateau; EC50 is the X value (agonist concentration) when the response is halfway between bottom and top; D is Hill coefficient. Curves were not generated for compounds having Ymax values were below 50%.
as §1

[3] = target: T4, S1P3 (membranes from S1P3 transfected CHO cells) (Homo sapiens, UniProt Q99500); experiment: Method B: Receptor [35S] GTPγS SPA Binding Assay, S1P3; format: biochemical
T4 construct: expressed in transfected cells; host or cells: CHO cells
Description: as §2, §3, §1

circulating lymphocytes = experiment: Blood Lymphocyte Reduction Assay (BLR) in mice; format: in vivo; conditions: BALB/c mice, oral, vs vehicle group
Description: Blood Lymphocyte Reduction Assay (BLR) in Rodents
Lewis rats or BALB/c mice were dosed orally with test article (as a solution or suspension in the vehicle) or vehicle alone (polyethylene glycol 300, “PEG300”). Blood was drawn at 4 hr and 24 h by retro-orbital bleeding. Blood lymphocyte counts were determined on an ADVIA® 120 Hematology Analyzer (Siemens Healthcare Diagnostics). The results were measured as a reduction in the percentage of circulating lymphocytes as compared to the vehicle treated group at the 4 hr and 24 hr measurement. The results represent the average results of all animals within each treatment group (n=3-4).
A compound of the present invention was tested in the Blood Lymphocyte Reduction assay (BLR) described hereinabove and the results are shown in Table D for rats and Table E for mice.

T3 sequence (P21453 whole entry): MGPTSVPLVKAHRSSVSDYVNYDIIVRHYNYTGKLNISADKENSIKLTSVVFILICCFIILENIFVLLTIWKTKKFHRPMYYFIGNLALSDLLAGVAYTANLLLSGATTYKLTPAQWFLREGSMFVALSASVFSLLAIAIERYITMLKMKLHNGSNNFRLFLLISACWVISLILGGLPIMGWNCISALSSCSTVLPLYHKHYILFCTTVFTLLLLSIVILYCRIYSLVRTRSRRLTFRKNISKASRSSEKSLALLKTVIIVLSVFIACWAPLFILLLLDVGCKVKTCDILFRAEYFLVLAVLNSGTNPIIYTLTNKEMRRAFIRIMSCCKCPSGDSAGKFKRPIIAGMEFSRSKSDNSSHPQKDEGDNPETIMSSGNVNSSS
T4 sequence (Q99500 whole entry): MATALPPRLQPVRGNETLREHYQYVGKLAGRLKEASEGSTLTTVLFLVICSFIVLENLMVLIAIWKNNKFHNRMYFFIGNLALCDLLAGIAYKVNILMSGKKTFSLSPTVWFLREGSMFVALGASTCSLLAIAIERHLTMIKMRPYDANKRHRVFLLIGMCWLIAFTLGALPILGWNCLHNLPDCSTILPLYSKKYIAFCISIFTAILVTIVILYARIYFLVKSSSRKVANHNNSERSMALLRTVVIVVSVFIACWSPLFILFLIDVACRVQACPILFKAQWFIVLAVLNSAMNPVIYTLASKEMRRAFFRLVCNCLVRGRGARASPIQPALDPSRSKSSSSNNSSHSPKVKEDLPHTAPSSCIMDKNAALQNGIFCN
T1 sequence (P21453 whole entry): as the sequence (P21453 whole entry) above
T2 sequence (P21453 whole entry): as above

- IC50 (human S1P1): 0.21 nM
- EC50 [1]: 1.4 nM
- EC50 ([2]; Method B SPA, S1P1 transfected CHO membranes): 0.17 nM
- GTPγS S1P3/S1P1 (Method B) ([2]; ratio of GTPγS S1P3 EC50 to GTPγS S1P1 EC50, Method B): 37,000
- EC50 [3]: 6200 nM
SMILES: O=C(O)C1CN(Cc2ccc(-c3noc(-c4onc(-c5ccccn5)c4C(F)(F)F)n3)cc2)C1 [Example 1, 1-(4-(5-(3-(Pyridin-2-yl)-4-(trifluoromethyl)isoxazol-5-yl)-1,2,4-oxadiazol-3-yl)benzyl)azetidine-3-carboxylic acid]
- % reduction in lymphocytes at 4 hr. (circulating lymphocytes; 0.008 mg/kg): 13%
- % reduction in lymphocytes at 24 hr. (circulating lymphocytes; 0.008 mg/kg): 8%
- % reduction in lymphocytes at 4 hr. (circulating lymphocytes; 0.04 mg/kg): 67%
- % reduction in lymphocytes at 24 hr. (circulating lymphocytes; 0.04 mg/kg): 39%
- % reduction in lymphocytes at 4 hr. (circulating lymphocytes; 0.2 mg/kg): 82%
- % reduction in lymphocytes at 24 hr. (circulating lymphocytes; 0.2 mg/kg): 74%
- % reduction in lymphocytes at 4 hr. (circulating lymphocytes; 1.0 mg/kg): 83%
- % reduction in lymphocytes at 24 hr. (circulating lymphocytes; 1.0 mg/kg): 77%

Reference: patent publication US8404672B2, “Substituted heterocyclic compounds” (Bristol-Meyers Squibb Company, priority 2009, dated 2013)
